Consider seven compounds from ChEMBL document CHEMBL1201862, “PubChem BioAssay data set” (2004).

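Values below derive from 48-hour exposures of cells grown in 96-well plates, with endpoints linearly interpolated between the two concentrations bracketing the appropriate inhibition level. The concentration for 50% growth inhibition is given as GI50.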 Active and inactive are the calls of the source. Rule as the data show it: active = GI50 up to about 1.1 µM and inactive = higher. A value given as a limit tells only on which side of the number the result lay.

Among the test systems are UO-31; MCF7; SF-268; HCT-116; RXF 393; MOLT-4; CAKI-1; MDA-MB-231; UACC-257; HOP-92; RPMI-8226; BT-549; U-251; SW-620; MDA-N; SNB-75; SN12C; NCI-H23; MDA-MB-435; SF-295.
Assay in all cases: growth of human tumour cells (NCI), 48 h

`CC[C@](O)(CC(=O)O[C@H]1C(=O)O[C@@H]2C[C@H]3C(C)=CC(=O)[C@@H](O)[C@]3(C)[C@H]3[C@@]4(O)OC[C@]32[C@@H]1[C@@H](C)[C@H]4O)C(C)C`: the GI50 in the assay on UO-31 is < 0.0122 µM (active); in the assay with MCF7 it was < 0.01 µM (active); with SF-268, < 0.01 µM (active); with HCT-116, < 0.01 µM (active); with RXF 393, < 0.01 µM (active); in the assay on MOLT-4, < 0.01 µM (active). In addition, the GI50 with CAKI-1, in the assay on MDA-MB-231, in the assay with UACC-257, in the assay with HOP-92, with RPMI-8226 and in the assay with BT-549 was < 0.01 µM (active) each time. In addition, the GI50 with U-251, in the assay with SW-620, with MDA-N, with SNB-75, in the assay with SN12C and with NCI-H23 was < 0.01 µM (active) in each case. In addition, the GI50 with MDA-MB-435 and in the assay with SF-295 was < 0.01 µM (active) throughout.

`CC(C)=CCC[C@@H](C)C1=C(Nc2ccccc2Cl)C(=O)C(C)=C(O)C1=O`: the GI50 with UO-31 was 2.89 µM (inactive); in the assay with MCF7, 7.69 µM (inactive); in the assay with SF-268 it was 3.85 µM (inactive); in the assay on HCT-116, 3.91 µM (inactive); in the assay with RXF 393 it was 11.7 µM (inactive); in the assay with MOLT-4, 2.04 µM (inactive). Besides, the GI50 in the assay on CAKI-1 was 4.06 µM (inactive); in the assay with MDA-MB-231 it was 4.61 µM (inactive); in the assay on UACC-257 it was 6.46 µM (inactive); with HOP-92 it was 6.82 µM (inactive); in the assay on RPMI-8226, 1.17 µM (inactive); with BT-549 it was 7.16 µM (inactive). Moreover, the GI50 in the assay on U-251 is 4.27 µM (inactive); with SW-620, 4.71 µM (inactive); in the assay on MDA-N, 4.5 µM (inactive); with SNB-75, 1.87 µM (inactive); in the assay with SN12C it was 3.72 µM (inactive); in the assay with NCI-H23, 2.84 µM (inactive). In addition, the GI50 in the assay on MDA-MB-435 is 4.85 µM (inactive); with SF-295, 2.88 µM (inactive).

In the case of `COc1cc2c[n+](C)c3c4cc5c(cc4ccc3c2cc1OC)OCO5` [NITIDINE CHLORIDE], the GI50 in the assay on UO-31 was > 61.4 µM (inactive); in the assay on MCF7, 1.14 µM (inactive); in the assay on SF-268, 0.126 µM (active); in the assay on HCT-116 it was 5.96 µM (inactive); in the assay with RXF 393 it was 12.4 µM (inactive); in the assay with MOLT-4, 0.411 µM (active). The GI50 with CAKI-1 was 2.37 µM (inactive); in the assay with MDA-MB-231, 2.62 µM (inactive); with UACC-257, 26.1 µM (inactive); in the assay on HOP-92 it was 2.07 µM (inactive); with RPMI-8226 it was 2.06 µM (inactive); in the assay with BT-549, 6.5 µM (inactive). For the same compound, the GI50 with U-251 was 0.371 µM (active); in the assay with SW-620 it was 1.14 µM (inactive); in the assay on MDA-N, 64 µM (inactive); in the assay on SNB-75, 0.22 µM (active); with SN12C it was 0.447 µM (active); with NCI-H23, 1.07 µM (active). The results for the GI50 with MDA-MB-435 and in the assay with SF-295 were > 100 µM (inactive) and 5.93 µM (inactive), respectively.

Turning to `CN(C)C(=S)N/N=C\C(=N/NC(=S)N(C)C)c1ccccc1`, the GI50 is 3.69 µM (inactive) in the assay on UO-31; 4.03 µM (inactive) with MCF7; 4.14 µM (inactive) in the assay with SF-268; 3.52 µM (inactive) in the assay with HCT-116; 7.36 µM (inactive) with RXF 393; > 100 µM (inactive) in the assay with MOLT-4. For the same compound, the GI50 with CAKI-1 was 7.24 µM (inactive); in the assay on MDA-MB-231, 19.3 µM (inactive); in the assay with UACC-257 it was > 23.4 µM (inactive); in the assay on HOP-92, 3.91 µM (inactive); in the assay with RPMI-8226 it was 4.68 µM (inactive); in the assay on BT-549 it was > 22.2 µM (inactive). For the same compound, the GI50 with U-251 was 3.96 µM (inactive); in the assay on SW-620, 4.53 µM (inactive); with MDA-N, > 61.8 µM (inactive); with SNB-75 it was 13.4 µM (inactive); in the assay on SN12C, 6.24 µM (inactive); in the assay with NCI-H23 it was 9.46 µM (inactive). The GI50 with MDA-MB-435 is 34.9 µM (inactive); in the assay with SF-295 it was 4.93 µM (inactive).

`Nc1nc(Cl)cc(Nc2cc(Cl)cc(Cl)c2)n1`: the GI50 in the assay with UO-31 is 19.6 µM (inactive); with MCF7, 18.1 µM (inactive); with SF-268, 20.8 µM (inactive); in the assay with HCT-116, 17.5 µM (inactive); with RXF 393, 21.1 µM (inactive); with MOLT-4, 22.3 µM (inactive). Further, the GI50 was 23.4 µM (inactive) with CAKI-1; 20 µM (inactive) in the assay with MDA-MB-231; 18.5 µM (inactive) in the assay on UACC-257; 21.5 µM (inactive) in the assay on HOP-92; 33 µM (inactive) in the assay with RPMI-8226; 22.1 µM (inactive) in the assay on BT-549. Besides, the GI50 in the assay on U-251 was 21.2 µM (inactive); with SW-620, 22.4 µM (inactive); with MDA-N it was 23 µM (inactive); in the assay with SNB-75, 21.7 µM (inactive); in the assay on SN12C it was 22 µM (inactive); in the assay with NCI-H23, 23.1 µM (inactive). Besides, the GI50 in the assay with MDA-MB-435 was 20.1 µM (inactive); with SF-295, 21.1 µM (inactive).

As for `Cc1c(N)nc([C@H](CC(N)=O)NC[C@H](N)C(N)=O)nc1C(=O)N[C@H](C(=O)N[C@H](C)[C@@H](O)[C@H](C)C(=O)N[C@H](C(=O)NCCc1nc(-c2nc(C(=O)NCCC[S+](C)C)cs2)cs1)[C@@H](C)O)C(OC1OC(CO)C(O)C(O)C1OC1OC(CO)C(O)C(OC(N)=O)C1O)c1c[nH]cn1` (stereo not given in full), the GI50 was 0.478 µM (active) with UO-31; 2.45 µM (inactive) in the assay on MCF7; 1.15 µM (inactive) in the assay on SF-268; 0.415 µM (active) in the assay with HCT-116; 0.236 µM (active) with RXF 393; 1.28 µM (inactive) with MOLT-4. The GI50 with CAKI-1 was 0.0379 µM (active); in the assay on MDA-MB-231, 15.8 µM (inactive); with UACC-257 it was 12 µM (inactive); with HOP-92 it was 0.0841 µM (active); in the assay with RPMI-8226 it was 17 µM (inactive); in the assay on BT-549, 10.2 µM (inactive). The GI50 was 0.834 µM (active) in the assay on U-251; 8.18 µM (inactive) with SW-620; 14.8 µM (inactive) with MDA-N; 0.426 µM (active) in the assay on SNB-75; 0.984 µM (active) in the assay on SN12C; 0.637 µM (active) in the assay on NCI-H23. Also, the GI50 with MDA-MB-435 was 19.6 µM (inactive); in the assay with SF-295, 0.114 µM (active).

Take `CCC(=O)Nc1ncnc2ncn(C(=O)CC)c12`: the GI50 with UO-31, in the assay with MCF7, with SF-268, with HCT-116, in the assay on RXF 393 and in the assay on MOLT-4 was > 100 µM (inactive) in each case. Moreover, the GI50 in the assay on CAKI-1, in the assay on MDA-MB-231, in the assay on UACC-257, with HOP-92, with RPMI-8226 and in the assay with BT-549 was > 100 µM (inactive) in each case. Also, the GI50 in the assay with U-251, in the assay on SW-620, with MDA-N, with SNB-75, in the assay on SN12C and in the assay with NCI-H23 was > 100 µM (inactive) each time. Further, the GI50 in the assay with MDA-MB-435 and in the assay with SF-295 was > 100 µM (inactive) in each case.
